Data on three compounds can be found in patent US20250050042A1, “DRY POWDER FORMULATIONS FILLED IN AN INHALER WITH IMPROVED RESISTANCE TO HUMIDITY” (CHIESI FARMACEUTICI S.P.A., priority 2021, published 2025).

The nature of data set [1]: In-use stability of aerosol performance (FPM drop, NGI) on storage at 30° C. and 75% relative humidity. The settings on record: in use at 30° C./75%. In kind it is physicochemical.
A short description of data set [2]: Aerosol performance by Next Generation Impactor (Example 4). In kind it is physicochemical. The arrangement: MDD: unit not given beside the values. The settings on record: mean; for FPM: particles equal to or lower than 5.0 micron.
Where [3] appears, read: second block of Table 1 without sub-heading (co-micronization formulation), T = 0 + 1 M.
Setting [4] is: second block of Table 1 without sub-heading (co-micronization formulation), T = 0 + 2 M.
[5] abbreviates: second block of Table 1 without sub-heading (co-micronization formulation), T = 0 + 3 M.
The mark [6] stands for this setting: simple mixing process formulation, T = 0 + 1 M, mean values.
Setting [7] is: simple mixing process formulation, T = 0 + 1.5 M, mean values.
Setting [8] is: simple mixing process formulation, T = 0 + 2 M, mean values.
The mark [9] stands for this setting: simple mixing process formulation, T = 0 + 3 M, mean values.
Where [10] appears, read: Sample A (coarse lactose batch A).
[11] abbreviates: Sample A (coarse lactose batch A, tapped density 0.72).
Where [12] appears, read: Sample B (coarse lactose batch B).
Setting [13] is: Sample B (coarse lactose batch B, tapped density 0.69).

Structures can show the parent of a compound that is named as a salt.

For `CCC(=O)OCC(=O)[C@@]1(OC(=O)CC)[C@@H](C)C[C@H]2[C@@H]3CCC4=CC(=O)C=C[C@]4(C)[C@@]3(Cl)[C@@H](O)C[C@@]21C` [BDP, (8S,9R,10S,11S,13S,14S,16S,17R)-9-chloro-11-hydroxy-10,13,16-trimethyl-3-oxo-17-[2-(propionyloxy)acetyl]-6,7,8,9,10,11,12,13,14,15,16,17-dodecahydro-3H-cyclopenta[a]phenanthren-17-yl propionate], the “FPM drop (%)” value in data set [1] (setting [3]) was −10.4%; in data set [1] (setting [4]) it was −20.3%; in data set [1] (setting [5]), −19.6%; in data set [1] (setting [6]), −22.1%; in data set [1] (setting [7]) it was −30.5%; in data set [1] (setting [8]), −26.3%. Further, the “FPM drop (%)” value in data set [1] (setting [9]) is recorded as −30.2%. Besides, the DD in data set [2] (setting [10]) was found to be 90.4; in data set [2] (setting [12]) it was 88.6. The FPF was 45% in data set [2] (setting [10]) and 33.4% in data set [2] (setting [12]). Besides, the MDD was 92.4 in data set [2] (setting [10]) and 88.5 in data set [2] (setting [12]). In addition, the FPM in data set [2] (setting [11]) worked out at 41.6; in data set [2] (setting [13]), 29.5.
On to `COc1ccc(CC(C)NCC(O)c2ccc(O)c(NC=O)c2)cc1` (centres unmarked) [FF, formoterol fumarate dihydrate], for which, in data set [2] (setting [10]), the DD turned out to be 5.6, the FPF is 48.4% and the MDD stood at 5.6. In data set [2] (setting [11]), this compound registered an FPM of 2.7. Moreover, in data set [2] (setting [12]), the DD is on record as 5.4, the FPF was 36.8% and the MDD came out at 5.4. Moreover, in data set [2] (setting [13]), the FPM is given as 2.0.
With `C[N+]1(C)CCC(OC(=O)C(O)(c2ccccc2)C2CCCC2)C1` (centres unmarked) [GB, glycopyrronium bromide], the “FPM drop (%)” value in data set [1] (setting [3]) is −7.8%; in data set [1] (setting [4]), −19.1%; in data set [1] (setting [5]), −20.7%; in data set [1] (setting [6]) it was −24.5%; in data set [1] (setting [7]), −36.5%; in data set [1] (setting [8]) it was −29.5%. In addition, in data set [1] (setting [9]), the “FPM drop (%)” value is −33.1%. The DD in data set [2] (setting [10]) came out at 11.4; in data set [2] (setting [12]) it was 11.0. Moreover, the FPF came out at 41.3% in data set [2] (setting [10]) and 30.9% in data set [2] (setting [12]). Moreover, the MDD is 11.7 in data set [2] (setting [10]) and 11.1 in data set [2] (setting [12]). For the same compound, the figures for the FPM in data set [2] (setting [11]) and in data set [2] (setting [13]) were 4.8 and 3.4, respectively.
